From patent US10968266B2, “GIP peptide analogues” (University of Copenhagen, priority 2014, dated 2021)

What was measured:
human GIP receptor [1] = molecular target: T1, human GIP receptor (Homo sapiens, UniProt P48546); assay: cAMP accumulation assay (agonism, antagonism, Schild analysis), COS-7 cells transfected with human GIP receptor (Example 7); format: cell-based; conditions: for Slope of Schild plot: GIP(1-42) dose-response curves with fixed antagonist concentrations
T1 construct: host or cells: COS-7 cells, transient transfection (calcium phosphate precipitation), pCMV-Script vector
T1 sequence (P48546 22-466): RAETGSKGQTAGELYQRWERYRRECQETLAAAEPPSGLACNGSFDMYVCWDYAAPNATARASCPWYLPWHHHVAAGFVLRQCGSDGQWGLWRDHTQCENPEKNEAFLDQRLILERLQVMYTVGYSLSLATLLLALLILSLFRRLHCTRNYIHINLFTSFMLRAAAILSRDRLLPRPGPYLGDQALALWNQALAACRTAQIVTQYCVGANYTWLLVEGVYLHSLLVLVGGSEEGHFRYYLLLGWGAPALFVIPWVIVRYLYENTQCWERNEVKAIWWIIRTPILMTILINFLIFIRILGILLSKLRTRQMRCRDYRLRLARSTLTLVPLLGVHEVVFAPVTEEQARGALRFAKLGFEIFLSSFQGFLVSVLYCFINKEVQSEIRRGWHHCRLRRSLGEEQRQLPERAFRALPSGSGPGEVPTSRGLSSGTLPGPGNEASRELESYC
Procedure: COS-7 cells were grown in 10% CO2 and at 37° C. in Dulbecco's modified Eagle's medium 1885 supplemented with 10% fetal bovine serum, 2 mM glutamine, 180 units/ml penicillin, and 45 µg/ml streptomycin. Transfection of COS-7 cells was performed using the calcium phosphate precipitation method with chloroquine addition as previously described (Kissow et al., 2012).
Two days after transfection the cells were washed once with HEPES buffered saline (HBS) and incubated with HBS and 0.5 mM 3-isobutyl-1-methylxanthine (IBMX) for 30 minutes at 37° C. […] After ligand incubation, the HitHunter™ cAMP XS assay (an enzyme fragment complementation-based assay, DiscoveRx, Birmingham, United Kingdom) was carried out according to the manufacturer's instructions. All experiments were made in duplicates, and repeated at least three times. Luminescence was measured by Perkin Elmer™ EnVision 2104 Multilabled reader (Skovlunde, Danmark). In brief, the cells were lysed in the wells, the enzyme fragment-cAMP-antibody, an enzyme fragment and the enzyme substrates were added followed by 1 hour incubation at room temperature on shaker tray. The other enzyme fragment was added to the wells and incubated for 4 hours on shaker tray followed by measurements of luminescence. The ligand-induced cAMP competed with the binding of antibody to the first enzyme fragment and left the two fragments to fuse. The enzyme complex hydrolyzed the substrates and yielded luminescence. The number “n” refers to individual experiments with separate transfections although from same cell line.
IC50, EC50, and Kd/Ki values were determined by nonlinear regression. These, as well as maximal binding capacity (Bmax) values and Schild plot analysis were carried out with the GraphPad Prism 6.0 software (GraphPad, San Diego, Calif., USA) and Microsoft Excel™. Statistical analyses (unpaired t-tests) of two parameters were also performed with GraphPad Prism 6.0. The calculations of Bmax and Ki values were based on the formula for one class of binding sites in homologous competition binding studies and the Cheng Prussoffs formula, respectively (DeBlasi et al., 1989). Kd is the dissociation constant determined by homologous receptor binding. […] Schild plots were performed with log (DR-1) (ordinate) and log(antagonist concentration) (abscissa) to estimate the slopes and Ki values (Lazareno and Birdsall, 1993).

human GIP receptor [2] = molecular target: T1, human GIP receptor; assay: Competitive binding assay with 125I-labelled GIP radioligands, COS-7 cells transfected with human GIP receptor (Example 7); conditions: for Competitive binding fold (fold change of GIP(1-30)NH2 affinity): radioligand 125I-GIP(1-42); for Competitive binding fold (fold change of GIP(1-30)NH2 affinity) / fold change GIP(1-30)NH2: relative to GIP(1-30)NH2
Procedure: Transfection of COS-7 cells was performed using the calcium phosphate precipitation method with chloroquine addition as previously described (Kissow et al., 2012). […] Nonspecific binding was determined as the binding of radioligand to untransfected cells. All determinations were made in duplicates, and all experiments repeated at least three times. The samples were analyzed for radioactivity using a Wallac Wizard 1470 Gamma Counter (GMI Inc., Minnesota, USA). The number “n” refers to individual experiments with separate transfections although from same cell line. IC50, EC50, and Kd/Ki values were determined by nonlinear regression. […] Statistical analyses (unpaired t-tests) of two parameters were also performed with GraphPad Prism 6.0. The calculations of Bmax and Ki values were based on the formula for one class of binding sites in homologous competition binding studies and the Cheng Prussoffs formula, respectively (DeBlasi et al., 1989). Kd is the dissociation constant determined by homologous receptor binding. […] Schild plots were performed with log (DR-1) (ordinate) and log(antagonist concentration) (abscissa) to estimate the slopes and Ki values (Lazareno and Birdsall, 1993).

[3] = inhibition of GIP(1-42) at 50-80% of max receptor activation

Row | Compound | Type of antagonism (Schild analysis) (human GIP receptor [1]) | Slope of Schild plot (human GIP receptor [1]) | IC50 (human GIP receptor [1]; [3]) | Competitive binding fold (fold change of GIP(1-30)NH2 affinity) (human GIP receptor [2]) | cAMP accumulation logIC50 ± SEM (antagonism) (human GIP receptor [1]; inhibition of GIP(1-42) at 50-80% of max receptor activation, given with negative sign) | fold change GIP(1-30)NH2 (human GIP receptor [2]; radioligand 125I-GIP(1-30)NH2) | IC50 (human GIP receptor [2]; radioligand 125I-GIP(2-30)NH2) | fold change GIP(1-30)NH2 (human GIP receptor [2]; radioligand 125I-GIP(2-30)NH2) | IC50 (human GIP receptor [2]; radioligand 125I-GIP(3-30)NH2) | fold change GIP(1-30)NH2 (human GIP receptor [2]; radioligand 125I-GIP(3-30)NH2)
1 | CC[C@H](C)[C@H](NC(=O)[C@H](CO)NC(=O)[C@H](Cc1ccc(O)cc1)NC(=O)[C@H](CC(=O)O)NC(=O)[C@H](CO)NC(=O)[C@@H](NC(=O)[C@H](Cc1ccccc1)NC(=O)[C@@H](N)[C@@H](C)O)[C@@H](C)CC)C(=O)N[C@@H](C)C(=O)N[C@@H](CCSC)C(=O)N[C@@H](CC(=O)O)C(=O)N[C@@H](CCCCN)C(=O)N[C@H](C(=O)N[C@@H](Cc1c[nH]cn1)C(=O)N[C@@H](CCC(N)=O)C(=O)N[C@@H](CCC(N)=O)C(=O)N[C@@H](CC(=O)O)C(=O)N[C@@H](Cc1ccccc1)C(=O)N[C@H](C(=O)N[C@@H](CC(N)=O)C(=O)N[C@@H](Cc1c[nH]c2ccccc12)C(=O)N[C@@H](CC(C)C)C(=O)N[C@@H](CC(C)C)C(=O)N[C@@H](C)C(=O)N[C@@H](CCC(N)=O)C(=O)N[C@@H](CCCCN)C(N)=O)C(C)C)[C@@H](C)CC [GIP(5-30)NH2] | pure competitive antagonists | 1.1±0.04 | 11.9 nM | 6.6 fold |  |  |  |  |  | 
2 | CC[C@H](C)[C@H](NC(=O)[C@H](CO)NC(=O)[C@H](Cc1ccc(O)cc1)NC(=O)[C@H](CC(=O)O)NC(=O)[C@H](CO)NC(=O)[C@@H](NC(=O)[C@@H](N)Cc1ccccc1)[C@@H](C)CC)C(=O)N[C@@H](C)C(=O)N[C@@H](CCSC)C(=O)N[C@@H](CC(=O)O)C(=O)N[C@@H](CCCCN)C(=O)N[C@H](C(=O)N[C@@H](Cc1c[nH]cn1)C(=O)N[C@@H](CCC(N)=O)C(=O)N[C@@H](CCC(N)=O)C(=O)N[C@@H](CC(=O)O)C(=O)N[C@@H](Cc1ccccc1)C(=O)N[C@H](C(=O)N[C@@H](CC(N)=O)C(=O)N[C@@H](Cc1c[nH]c2ccccc12)C(=O)N[C@@H](CC(C)C)C(=O)N[C@@H](CC(C)C)C(=O)N[C@@H](C)C(=O)N[C@@H](CCC(N)=O)C(=O)N[C@@H](CCCCN)C(N)=O)C(C)C)[C@@H](C)CC [GIP(6-30)NH2, reference compound] |  | 0.38±0.13 | 342 nM |  | −6.47 ± 0.6 | 3502 fold | 340 nM | 707 fold | 370 nM | 223 fold
3 | CC[C@H](C)[C@H](NC(=O)[C@H](CO)NC(=O)[C@H](Cc1ccc(O)cc1)NC(=O)[C@H](CC(=O)O)NC(=O)[C@@H](N)CO)C(=O)N[C@@H](C)C(=O)N[C@@H](CCSC)C(=O)N[C@@H](CC(=O)O)C(=O)N[C@@H](CCCCN)C(=O)N[C@H](C(=O)N[C@@H](Cc1c[nH]cn1)C(=O)N[C@@H](CCC(N)=O)C(=O)N[C@@H](CCC(N)=O)C(=O)N[C@@H](CC(=O)O)C(=O)N[C@@H](Cc1ccccc1)C(=O)N[C@H](C(=O)N[C@@H](CC(N)=O)C(=O)N[C@@H](Cc1c[nH]c2ccccc12)C(=O)N[C@@H](CC(C)C)C(=O)N[C@@H](CC(C)C)C(=O)N[C@@H](C)C(=O)N[C@@H](CCC(N)=O)C(=O)N[C@@H](CCCCN)C(N)=O)C(C)C)[C@@H](C)CC [GIP(8-30)NH2] |  |  | 133 nM | 89 fold |  |  |  |  |  | 
